Measured values taken from patent publication US9067930B2, “2-oxo-piperidinyl derivatives” (UCB Pharma, S.A., priority 2011, dated 2015).

Columns and labels:
[1] = test system: dural protein extravasation induced by electrical stimulation of the trigeminal ganglion; assay: Plasma protein extravasation (PPE) / dural extravasation model of migraine; format: in vivo; conditions: rat
Source text: 5-HT7 antagonists are expected to have efficacy in the prophylactic (and potentially acute) treatment of migraine by: • 1) Preventing serotonin-induced vasodilatation of cranial blood vessels (Matthys, A., et al., Role of the 5-HT7 receptor in the central nervous system: from current status to future perspectives. Molecular Neurobiology, 2011; Leopoldo, M., et al., Serotonin 5-HT7 receptor agents: Structure-activity relationships and potential therapeutic applications in central nervous system disorders. Pharmacology & Therapeutics, 2011, 129, 120-148; Hedlund, P. B., The 5-HT7 receptor and disorders of the nervous system: an overview. Psychopharmacology, 2009, 206, 345-354). Contrary to the triptans, 5-HT7 antagonists would only reverse a pre-existing vasodilatation, without producing vasoconstriction by themselves. This would make 5-HT7 antagonists, in contrast to triptans, compatible with chronic use and therefore with prophylactic treatment. • 2) By inhibiting peripheral and central sensitization. […] In this rat model of migraine, dural protein extravasation is induced by electrical stimulation of the trigeminal ganglion. […]
The level of fluorescence in dura maters ipsi- and contra-lateral to the trigeminal ganglia stimulation is quantified with a digital camera (Hamamatsu C4742-98 filter for FITC objective Nikon 2.8×) and analysis software (WIT5.3, Logical vision).

CGRP release = conditions: after electrical stimulation of the trigeminal ganglion; cited from earlier work

CC1CCN(CC[C@H]2CCCN2S(=O)(=O)c2cccc(O)c2)CC1 [SB-269970]
inhibition of neurogenic inflammation / reduction of protein extravasation [1]: Inhibition of neurogenic inflammation | human coronary artery contraction (human coronary artery): does not induce human coronary artery contraction | release of CGRP (CGRP release): inhibits the release of CGRP
